Activity calls are given as the source filed them. No cut-off for these calls is given here.
Columns and labels:
[1] = test system: HeLa; test: Induction of mitophagy in human HeLa Mito-Keima/YFP-Parkin cells treated with FCCP/oligomycin measured by FACS analysis relative to DMSO; type: functional
[2] = Cytotoxicity against human HeLa cells expressing YFP parkin treated with FCCP/ oligomycin assessed as highest safety dose by DAPI staining analysis; type: toxicity, cell-based; details: read-out: Activity
[3] = Cytotoxicity against human HeLa cells expressing YFP parkin assessed as highest safety dose by DAPI staining analysis; type: toxicity, cell-based; details: read-out: Activity
[4] = Cytotoxicity against human HeLa cells expressing YFP parkin in presence of FCCP/oligomycin at 25 uM assessed as maximum cell death by DAPI staining analysis relative to control; type: toxicity, cell-based
[5] = test system: Primary hippocampal neuron; test: Protection against PFFs induced alpha-synuclein fibril formation in C57BL/6 mouse derived primary hippocampal neurons assessed as reduction in phosphorylated S129 alpha-synuclein monomer level at 0.1 to 25 uM measured after 6 days; type: functional, cell-based; details: dose 0.1-25 µM, time 6.0 day
[6] = test system: Primary hippocampal neuron; test: Protection against PFFs induced alpha-synuclein fibril formation in C57BL/6 mouse derived primary hippocampal neurons assessed as reduction in phosphorylated S129 alpha-synuclein level at 0.1 to 25 uM measured after 6 days; type: functional, cell-based; details: dose 0.1-25 µM, time 6.0 day
[7] = test system: Primary hippocampal neuron; test: Protection against PFFs induced alpha-synuclein fibril formation in C57BL/6 mouse derived primary hippocampal neurons assessed as reduction in phosphorylated S129 alpha-synuclein (250-12) level at 0.1 to 25 uM measured after 6 days; type: functional, cell-based; details: dose 0.1-25 µM, time 6.0 day
[8] = test system: Primary hippocampal neuron; test: Protection against PFFs induced alpha-synuclein fibril formation in C57BL/6 mouse derived primary hippocampal neurons assessed as reduction in phosphorylated S129 alpha-synuclein level at 1.56 to 12.5 uM measured after 6 days; type: functional, cell-based; details: dose 1.56-12.5 µM, time 6.0 day
[9] = Therapy index in human HeLa Mito-Keima/YFP-Parkin cells treated with FCCP/oligomycin assessed as mitophagy safety margin by DAPI staining analysis; type: toxicity, cell-based; details: read-out: TI
[10] = test system: HeLa; test: Induction of mitophagy in human HeLa YFP-Parkin cells treated with FCCP/oligomycin assessed as cells with parkin recruited to mitochondria at 60 mins by FACS analysis; type: functional, cell-based; details: 1 h
[11] = AUClast in C57BL/6 mouse at 10 mg/kg, po administered as single dose by mass spectrometry; type: ADME, organism-based; parameters: dose 10 mg/kg, route po; details: in vivo
[12] = Cmax in C57BL/6 mouse at 50 mg/kg, po administered as single dose by mass spectrometry; type: ADME, organism-based; parameters: dose 50 mg/kg, route po; details: in vivo
[13] = test system: HeLa; test: Induction of mitophagy in human HeLa Mito-Keima cells treated with FCCP/oligomycin measured by FACS analysis; type: functional, cell-based
[14] = AUClast in C57BL/6 mouse at 50 mg/kg, po administered as single dose by mass spectrometry; type: ADME, organism-based; parameters: dose 50 mg/kg, route po; details: in vivo
[15] = Cmax in C57BL/6 mouse at 10 mg/kg, po administered as single dose by mass spectrometry; type: ADME, organism-based; parameters: dose 10 mg/kg, route po; details: in vivo
[16] = test system: HeLa; test: Induction of mitophagy in human HeLa Mito-Keima/YFP-Parkin cells treated with FCCP/oligomycin measured by FACS analysis; type: functional, cell-based
[17] = test system: Mus musculus; test: Protection against PFFs induced alpha-synuclein fibril formation in C57BL/6 mouse assessed as reduction in phosphorylated S129 alpha-synuclein level at 6.25 to 50 mg/kg, po administered twice daily; type: functional, organism-based; details: dose 6.25-50 mg/kg
[18] = test system: Mus musculus; test: Protection against PFFs induced alpha-synuclein fibril formation in C57BL/6 mouse assessed as reduction in phosphorylated S129 alpha-synuclein monomer level at 6.25 to 50 mg/kg, po administered twice daily; type: functional, organism-based; details: dose 6.25-50 mg/kg
[19] = AUClast in C57BL/6 mouse at 100 mg/kg, po administered as single dose by mass spectrometry; type: ADME, organism-based; parameters: dose 100 mg/kg, route po; details: in vivo
[20] = Cmax in C57BL/6 mouse at 100 mg/kg, po administered as single dose by mass spectrometry; type: ADME, organism-based; parameters: dose 100 mg/kg, route po; details: in vivo
[21] = Cmax in C57BL/6 mouse at 25 mg/kg, po administered as single dose by mass spectrometry; type: ADME, organism-based; parameters: dose 25 mg/kg, route po; details: in vivo
[22] = AUClast in C57BL/6 mouse at 25 mg/kg, po administered as single dose by mass spectrometry; type: ADME, organism-based; parameters: dose 25 mg/kg, route po; details: in vivo
[23] = test system: Mus musculus; test: Protection against kidney fibrosis in cisplatin-challenged C57BL/6 mouse assessed as reduction in Gdf15 expression at 6.25 to 50 mg/kg, po administered once a day for 3 days; type: functional, organism-based; details: dose 6.25-50 mg/kg, time 3.0 day
[24] = test system: Mus musculus; test: Protection against PFFs induced alpha-synuclein fibril formation in C57BL/6 mouse assessed as reduction in phosphorylated S129 alpha-synuclein (250-12) level at 6.25 to 50 mg/kg, po administered twice daily; type: functional, organism-based; details: dose 6.25-50 mg/kg
[25] = test system: Mus musculus; test: Protection against kidney fibrosis in cisplatin-challenged C57BL/6 mouse assessed as reduction in Tnfrsf12a expression at 6.25 to 50 mg/kg, po administered once a day for 3 days; type: functional, organism-based; details: dose 6.25-50 mg/kg, time 3.0 day
[26] = test system: Mus musculus; test: Protection against kidney fibrosis in cisplatin-challenged C57BL/6 mouse assessed as rescue of KIM-1 at 6.25 to 50 mg/kg, po administered once a day for 3 days; type: functional, organism-based; details: dose 6.25-50 mg/kg, time 3.0 day

## FC(F)(F)c1cc2c(N[C@H]3c4ccccc4CC[C@@H]3N3C[C@H]4COC[C@H]4C3)ncnc2[nH]1 (single isomer, unassigned)
[1]
  fold change (FC): 5.44
[2]
  MNTC: 2.8 µM
[3]
  MNTC: 25 µM

## COC1CN([C@@H]2COc3ccccc3[C@H]2Nc2ncnc3[nH]c(C4CC4)cc23)C1
[4]
  Emax at 25 µM: 22.5%
[2]
  MNTC: 25 µM
[3]
  MNTC: 25 µM

## COC1CN([C@@H]2COc3ccccc3[C@H]2Nc2ncnc3[nH]c(C(F)(F)F)cc23)C1
[5]
  Activity: Active
[6]
  Activity: Active
[2]
  MNTC: 21.4 µM
[7]
  Activity: Active
[3]
  MNTC: 25 µM

## FC(F)(F)c1cc2c(N[C@H]3c4ccccc4CC[C@@H]3N3CCOCC3)ncnc2[nH]1 (single isomer, unassigned)
[8]
  Activity: Active
[1]
  fold change (FC): 9.78
[9]
  selectivity ratio: > 30

## FC(F)(F)c1cc2c(NC3CCCc4ccccc43)ncnc2[nH]1 (single isomer, unassigned)
[8]
  Activity: Active
[10]
  EC50: 1740 nM
[11]
  AUC(0-t): 1.79 µM·h
[1]
  fold change (FC): 4.43
[12]
  Cmax: 6.98 µM
[13]
  EC50: 371 nM
[14]
  AUC(0-t): 30.5 µM·h
[15]
  Cmax: 0.49 µM

## COC1CN([C@H]2CCc3ccccc3[C@@H]2Nc2ncnc3[nH]c(C(F)(F)F)cc23)C1
[5]
  Activity: Active
[6]
  Activity: Active
[2]
  MNTC: 8.3 µM
[7]
  Activity: Active
[3]
  MNTC: 8.3 µM

## Fc1ccc2c(c1)CC[C@H](N1CCOCC1)[C@H]2Nc1ncnc2[nH]c(C3CC3)cc12 (single isomer, unassigned)
[1]
  fold change (FC): 5.24
[2]
  MNTC: 2.8 µM
[3]
  MNTC: 25 µM

## c1ccc2c(c1)OC[C@H](C1CCOCC1)[C@H]2Nc1ncnc2[nH]c(C3CC3)cc12 (single isomer, unassigned)
[5]
  Activity: Active
[6]
  Activity: Active
[2]
  MNTC: 21.5 µM
[7]
  Activity: Active
[3]
  MNTC: 25 µM

## FC(F)(F)c1cc2c(N[C@H]3c4ccccc4CC[C@@H]3N3CC4(COC4)C3)ncnc2[nH]1
[16]
  EC50: 300 nM

## FC(F)(F)c1cc2c(N[C@@H]3c4ccccc4CC[C@@H]3N3CCOCC3)ncnc2[nH]1
[9]
  selectivity ratio: < 10
[3]
  MNTC: 16.7 µM

## C[C@H]1CN([C@H]2CCc3ccccc3[C@@H]2Nc2ncnc3[nH]c(C(F)(F)F)cc23)CCO1 (single isomer, unassigned)
[5]
  Activity: Active
[6]
  Activity: Active
[2]
  MNTC: 9.1 µM
[7]
  Activity: Active
[3]
  MNTC: 25 µM

## Fc1ccc2c(c1)CC[C@H](N1CCOCC1)[C@H]2Nc1ncnc2[nH]c(C(F)(F)F)cc12 (single isomer, unassigned)
[1]
  fold change (FC): 5.11
[2]
  MNTC: 8.3 µM
[3]
  MNTC: 25 µM

## FC(F)(F)c1cc2c(N[C@@H]3c4ccccc4CC[C@H]3N3CCOCC3)ncnc2[nH]1 (single isomer, unassigned)
[1]
  fold change (FC): 7.78

## COC1CN([C@@H]2CCc3ccccc3[C@H]2Nc2ncnc3[nH]c(C(F)(F)F)cc23)C1
[3]
  MNTC: 25 µM
[16]
  EC50: 28800 nM

## FC(F)(F)c1cc2c(N[C@H]3c4ccccc4CC[C@@H]3N3CC4(CCOCC4)C3)ncnc2[nH]1 (single isomer, unassigned)
[1]
  fold change (FC): 3.95

## Fc1ccc2c(c1)CC[C@@H](N1CCOCC1)[C@@H]2Nc1ncnc2[nH]c(C(F)(F)F)cc12 (single isomer, unassigned)
[1]
  fold change (FC): 4.67
[2]
  MNTC: 25 µM
[3]
  MNTC: 25 µM

## c1ccc2c(c1)OC[C@H](N1CCOCC1)[C@H]2Nc1ncnc2[nH]c(C3CC3)cc12
[17]
  Activity: Active
[10]
  EC50: 1150 nM
[18]
  Activity: Active
[19]
  AUC(0-t): 85.6 µM·h
[11]
  AUC(0-t): 0.51 µM·h
[5]
  Activity: Active
[12]
  Cmax: 9.21 µM
[20]
  Cmax: 19.4 µM
[21]
  Cmax: 1.15 µM
[13]
  EC50: 153 nM
[22]
  AUC(0-t): 1.91 µM·h
[6]
  Activity: Active
[2]
  MNTC: 25 µM
[14]
  AUC(0-t): 17.3 µM·h
[23]
  Activity: Active
[24]
  Activity: Active
[7]
  Activity: Active
[15]
  Cmax: 0.35 µM
[25]
  Activity: Active
[3]
  MNTC: 25 µM
[26]
  Activity: Active

## C[C@@H]1CN([C@H]2CCc3ccccc3[C@@H]2Nc2ncnc3[nH]c(C4CC4)cc23)CCO1 (single isomer, unassigned)
[2]
  MNTC: 1.3 µM
[3]
  MNTC: 25 µM

## COC1CN([C@H]2COc3ccccc3[C@@H]2Nc2ncnc3[nH]c(C(F)(F)F)cc23)C1
[2]
  MNTC: 8.3 µM
[3]
  MNTC: 8.3 µM

## C[C@H]1CN([C@@H]2COc3cc(F)ccc3[C@H]2Nc2ncnc3[nH]c(C4CC4)cc23)CCO1
[2]
  MNTC: 7.4 µM
[3]
  MNTC: 25 µM

## FC(F)(F)c1cc2c(N[C@@H]3c4ccccc4CC[C@H]3N3CCOCC3)ncnc2[nH]1 (racemic)
[1]
  fold change (FC): 9.53
[3]
  MNTC: 13.9 µM

## COC[C@H]1CCN([C@H]2COc3ccccc3[C@@H]2Nc2ncnc3[nH]c(C(F)(F)F)cc23)C1 (single isomer, unassigned)
[2]
  MNTC: 4.5 µM
[3]
  MNTC: 25 µM

Source: ChEMBL document CHEMBL5393453, “Compositions and methods of using the same for treatment of neurodegenerative and mitochondrial disease” (2021)
